This note sets out measurements from patent US7956070B2, “Piperidines as chemokine modulators (CCR)” (AstraZeneca AB, priority 2004, dated 2011).

A short description of series [1]: pKa measurement (Sirius GLpKa). The class given is physicochemical. The procedure: The pKa of a compound of formula (I) is measured using one of the following methodologies.
The apparatus used consists of a Sirius GLpKa instrument with DPAS (Dip Probe Absorption Spectroscopy) attachment. Key elements of the apparatus are a Sirius pH electrode, stirrer, titrant dispensing tubes, a multi-tipped dispenser, motor driven dispensing syringes, fibre optic UV probe and diode array detector. In addition, solutions in PTFE containers of ionic strength adjusted (0.10 M KCl) distilled water, nominally 0.50 M HCl, nominally 0.50 M KOH and 80% v/v methanol:water are also housed within the instrument. The titration solutions are constantly purged with oxygen free nitrogen. The reservoir for the potassium hydroxide solution is further protected from atmospheric contamination by a soda-lime guard-tube. Samples are placed in titration vessels which in turn are placed in a movable autosampler tray (maximum capacity 48 samples). The electrode, stirrer, dispensing tubing/tips and DPAS probe are housed on a movable, automated z-tower unit, which, controlled by software, positions itself in the appropriate titration vessel when titrating. The Sirius GLpKa instrument is directly connected to a dedicated PC supporting software for assay setup and subsequent data analysis. Assays are set up using the GlpKaControl software and results are analysed using the pKaLOGP and pKaUV software on the PC. The software also allows determination of multiple pKas using complex curve fitting analyses.
Method B: Potentiometric Method
Two types of potentiometric titrations may be performed in order to determine a compound's pKa/pKas; a purely aqueous titration (recommended for fairly water soluble compounds) and a cosolvent titration, where variable amounts of methanol are added to the sample in addition to ionic strength adjusted water (recommended for compounds which are not soluble in water). For the latter, a value for the compound's pKa in pure ionic strength adjusted water can be estimated by the Yasuda-Shedlovsky procedure. This involves measuring the apparent pKa of the compound at three known weight percentages of methanol:water (transposed into reciprocals of the dielectric constants of the medium, 1/εr) and then extrapolating to 0 wt % methanol (1/εr=[…]).
The GLpKa instrument unit also houses two aqueous wash containers (containing distilled water), a waste beaker (to dispense extraneous solutions into) and a container holding pH 7.00 buffer solution for the electrode to be immersed in during periods between titrations. Each time a set of titrations is carried out, these solutions are replaced. Position 1 in the autosampler contains a titration vessel containing pH 7.00 buffer solution (changed for each titration set). For each titration set to be run, position 2 houses a titration vessel into which ionic strength adjusted water is dispensed (typically 15.00 mL). This in turn is adjusted to pH 1.80 with aqueous HCl and then titrated to pH 12.20 by gradual addition of aqueous KOH. This is referred to as a blank titration and is employed by the pKaLogP software in order to calibrate the pH electrode and to standardise the HCl solution, using the so-called four-plus parameter procedure. Periodically, (typically every 3 months, or when the titration solutions run low) the titration solutions are replaced and the KOH solution standardised against potassium hydrogen phthalate using a standardisation procedure within the GLpKaControl software. Between 1-2 mg of each sample must be accurately weighed out. Samples are placed in provided glass titration vessels. The weight of compound must be entered into the GLpKaControl software. […]

The target of series [2] is T1, human H1 receptor (Homo sapiens, UniProt P35367).
T1 construct: purchased Euroscreen SA, Brussels, Belgium ES-390-M; host or cells: recombinant CHO-K1 cells (membranes)
T1 sequence (P35367 whole entry): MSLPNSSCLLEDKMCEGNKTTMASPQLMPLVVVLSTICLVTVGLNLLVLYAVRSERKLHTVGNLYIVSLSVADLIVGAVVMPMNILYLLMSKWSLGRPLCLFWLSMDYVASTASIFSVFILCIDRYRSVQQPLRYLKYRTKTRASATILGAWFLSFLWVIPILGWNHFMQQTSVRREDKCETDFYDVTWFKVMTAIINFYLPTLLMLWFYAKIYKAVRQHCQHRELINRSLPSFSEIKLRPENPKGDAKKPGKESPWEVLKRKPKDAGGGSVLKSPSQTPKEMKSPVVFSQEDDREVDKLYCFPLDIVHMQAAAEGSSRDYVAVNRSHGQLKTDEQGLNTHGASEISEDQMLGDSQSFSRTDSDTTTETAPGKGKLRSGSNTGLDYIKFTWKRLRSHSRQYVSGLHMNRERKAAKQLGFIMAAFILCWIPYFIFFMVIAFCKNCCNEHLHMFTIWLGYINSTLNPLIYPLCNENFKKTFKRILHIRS
Description: Histamine H1 receptor binding, competition displacement of [3H]-pyrilamine. Conditions: 1 nM [3H]-pyrilamine, membranes from recombinant CHO-K1 cells expressing the human H1 receptor, 1 hour at room temperature; read-out: H1 pKi (converted). Here is the method:
Histamine H1 receptor binding activity of compounds of the invention was assessed by competition displacement of 1 nM [3H]-pyrilamine (Amersham, Bucks, Product code TRK 608, specific activity 30 Ci/mmol) to 2 μg membranes prepared from recombinant CHO-K1 cells expressing the human H1 receptor (Euroscreen SA, Brussels, Belgium, product code ES-390-M) in assay buffer (50 mM Tris pH 7.4 containing 2 mM MgCl2, 250 mM sucrose and 100 mM NaCl) for 1 hour at room temperature.
The following compounds of the invention gave inhibition of [3H]pyrilimine binding: […]
For orientation: Displacement assays read how much labelled ligand stays bound in the presence of the test substance.

[3] abbreviates: ionic strength adjusted (0.10 M KCl) water, Method B: potentiometric method, read-out: pKa (measured using Method B).

The term pKa denotes the pH at which an ionisable group is half protonated.

Each structure is given as a SMILES string. Like-named read-outs stand apart in the source and are kept apart here.

For `O=C(NC[C@@H](O)CN1CCC(Oc2ccc(Cl)c(Cl)c2)CC1)c1sc(=O)[nH]c1-c1ccc(F)cc1` [Example 25, N-{(2R)-3-[4-(3,4-Dichlorophenoxy)piperidin-1-yl]-2-hydroxypropyl}-4-(4-fluorophenyl)-2-oxo-2,3-dihydro-1,3-thiazole-5-carboxamide], the pKa in series [1] (setting [3]) is 7.4. Also, the Ki in series [2] is 0.0158 µM.
As for `CS(=O)(=O)Nc1cc(C(F)(F)F)c(C(=O)NC[C@@H](O)CN2CCC(Oc3ccc(Cl)c(Cl)c3)CC2)cn1` [Example 18, N-{(2R)-3-[4-(3,4-Dichlorophenoxy)piperidin-1-yl]-2-hydroxypropyl}-6-[(methylsulfonyl)amino]-4-(trifluoromethyl)nicotinamide], the pKa in series [1] (setting [3]) turned out to be 5.3. For the same compound, in series [2], the Ki is 0.316 µM.
As for `N#Cc1cc(C(=O)NC[C@@H](O)CN2CCC(Oc3ccc(Cl)c(Cl)c3)CC2)c(C2CC2)[nH]c1=O` [Example 16, 5-Cyano-2-cyclopropyl-N-[(2R)-3-[4-(3,4-dichlorophenoxy)-1-piperidinyl]-2-hydroxypropyl]-1,6-dihydro-6-oxo-3-pyridinecarboxamide], in series [1] (setting [3]), the pKa amounted to 3.8. The Ki in series [2] is 0.0251 µM.
As to `Cc1c(OC2CCN(C[C@H](O)CNC(=O)c3ccc(Cl)c(C(=O)O)c3)CC2)ccc(Cl)c1Cl` [Example 42, 2-Chloro-5-[({(2R)-3-[4-(3,4-dichloro-2-methylphenoxy)piperidin-1-yl]-2-hydroxypropyl}amino)carbonyl]benzoic acid], the pKa in series [1] (method not stated, read-out: measured pKa) turned out to be 2.3. Further, the Ki in series [2] was 0.126 µM.
With `Cc1[nH]nnc1C(=O)NC[C@@H](O)CN1CCC(Oc2ccc(Cl)c(Cl)c2)CC1` [Example 8, N-{(2R)-3-[4-(3,4-Dichlorophenoxy)piperidin-1-yl]-2-hydroxypropyl}-5-methyl-1H-1,2,3-triazole-4-carboxamide], the pKa in series [1] (setting [3]) was found to be 7.5. Further, in series [2], the Ki was 0.0158 µM.
In the case of `Cc1c(OC2CCN(C[C@H](O)CNC(=O)c3sc(=O)[nH]c3C(F)(F)F)CC2)ccc(Cl)c1Cl` [Example 24, N-{(2R)-3-[4-(3,4-Dichloro-2-methylphenoxy)piperidin-1-yl]-2-hydroxypropyl}-2-oxo-4-(trifluoromethyl)-2,3-dihydro-1,3-thiazole-5-carboxamide], the Ki in series [2] was 0.02 µM.
Regarding `Cn1c(C(=O)NC[C@@H](O)CN2CCC(Oc3ccc(Cl)c(Cl)c3)CC2)cc(=O)[nH]c1=O` [Example 14, N-{(2R)-3-[4-(3,4-Dichlorophenoxy)piperidin-1-yl]-2-hydroxypropyl}-3-methyl-2,6-dioxo-1,2,3,6-tetrahydropyrimidine-4-carboxamide], the Ki in series [2] was 0.126 µM.
Take `Cc1c(OC2CCN(C[C@H](O)CNC(=O)c3ccc(Cl)c(OCC(=O)O)c3)CC2)ccc(Cl)c1Cl` [Example 45, {2-Chloro-5-[({(2R)-3-[4-(3,4-dichloro-2-methylphenoxy)piperidin-1-yl]-2-hydroxypropyl}amino)carbonyl]phenoxy}acetic acid]: in series [2], the Ki is 0.0631 µM.
